Experimental findings from ChEMBL document CHEMBL3046307, “Synthesis and evaluation of 1-benzhydryl-sulfonyl-piperazine derivatives as inhibitors of MDA-MB-231 human breast cancer cell proliferation” (2007) are described below.

The test system of this experiment is MDA-MB-231. Briefly: Cytotoxicity against Homo sapiens (human) MDA-MB-231 cells assessed as inhibition of cell proliferation at 2 mM after 72 hr by MTS assay relative to control. As to conditions: MDA-MB-231, 72 h. It is filed as functional. In general terms: Tetrazolium assays rely on reduction of a dye to a coloured formazan, in cell work by metabolically active cells.

Turning to `Cc1noc(C)c1S(=O)(=O)N1CCN(C(c2ccccc2)c2ccccc2)CC1`, the inhibition at 2000 µM turned out to be 20.6%.
The result for `CS(=O)(=O)N1CCN(C(c2ccccc2)c2ccccc2)CC1` reads 3.79%; that for `O=S(=O)(c1ccc(Cl)cc1)N1CCN(C(c2ccccc2)c2ccccc2)CC1`, 1%.
The result for `Cc1ccc(S(=O)(=O)N2CCN(C(c3ccccc3)c3ccccc3)CC2)cc1` reads 10%; that for `CC(C)(C)c1ccc(S(=O)(=O)N2CCN(C(c3ccccc3)c3ccccc3)CC2)cc1`, 28.6%.

One may read the inhibition as the percentage by which the read-out fell short of the control.
